Where a name gives a salt, the structure may show the parent alone. *1 amine or outer side, *2 acyl side, *3 side chain or, on linkers, in order; H or OH if unused. Where a SMILES comes first, the peptide text is derived from it. [ ]: non-standard residue; d: D form. The star is where a group is joined. Trp(1-formyl) = O=Cn1cc(C[C@H](N[*:1])C(=O)[*:2])c2ccccc21; Sta = CC(C)C[C@H](N)[C@@H](O)CC(=O)O; Suc = O=C(CCC(=O)[*:2])[*:1]; Isovaleryl = CC(C)CC(=O)*; Aun = NCCCCCCCCCCC(=O)O; Boc = CC(C)(C)OC(=O)*; NHOH = ON*
How the values were obtained:
allergic sheep = details: cited from earlier work
mouse = mouse model of endotoxic shock; cited from earlier work
[1] = target: T1, endothelin converting enzyme (ECE) (Homo sapiens, UniProt P42892); experiment: ECE activity assay, ir-ET-1 formed from big ET measured by radioimmunoassay; format: biochemical
T1 sequence (P42892 1-770): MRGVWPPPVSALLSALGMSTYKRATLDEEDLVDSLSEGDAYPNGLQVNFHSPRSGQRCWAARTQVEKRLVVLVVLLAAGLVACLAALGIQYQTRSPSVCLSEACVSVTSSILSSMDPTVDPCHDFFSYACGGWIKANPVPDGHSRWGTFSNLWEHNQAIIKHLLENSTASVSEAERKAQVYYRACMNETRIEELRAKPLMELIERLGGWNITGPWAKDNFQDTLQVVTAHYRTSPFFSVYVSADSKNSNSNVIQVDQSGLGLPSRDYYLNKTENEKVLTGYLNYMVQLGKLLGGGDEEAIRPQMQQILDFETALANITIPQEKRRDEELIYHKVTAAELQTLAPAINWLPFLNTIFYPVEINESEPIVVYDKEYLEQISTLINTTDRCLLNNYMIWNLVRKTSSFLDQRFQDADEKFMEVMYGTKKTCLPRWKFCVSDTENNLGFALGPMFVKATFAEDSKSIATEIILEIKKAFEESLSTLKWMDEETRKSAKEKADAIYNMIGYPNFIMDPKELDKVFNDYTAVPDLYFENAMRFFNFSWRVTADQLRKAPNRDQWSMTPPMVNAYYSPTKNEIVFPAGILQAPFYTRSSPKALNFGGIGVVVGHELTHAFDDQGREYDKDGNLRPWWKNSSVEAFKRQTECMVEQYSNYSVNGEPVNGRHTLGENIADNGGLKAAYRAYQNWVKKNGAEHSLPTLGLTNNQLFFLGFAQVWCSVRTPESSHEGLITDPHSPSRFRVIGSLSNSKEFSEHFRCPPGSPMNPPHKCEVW
Procedure: ECE Activity Assay: The typical reaction mixture (50 μL) contained 10 μM big ET, 100 mM Hepes-KOH (pH 7.0), 0.25% Triton X-100, 0.01% NaN3, 0.2 mM phenylmethylsulfonyl fluoride, 50 μM pepstatin A, 0.1 mM leupeptin, the indicated concentration of compound (or DMSO for control), and the indicated amount of protein. The final DMSO concentration was kept at 3%. After incubation for 1.5 hours at 37° C., the reaction was stopped by the addition of EDTA to a final concentration of 10 mM. This final mixture was diluted (usually 100-fold) with the radioimmunoassay buffer (see below) and used for radioimmunoassay.
Radioimmunoassay (RIA): For the measurement of immunoreactive (ir) ET-1, the assay mixture (250 μL) contained the antibody against ET-1, an ET-1 sample, and [^125 I]ET-1 (7000 cpm) in the radioimmunoassay buffer (60 mM potassium phosphate (KPi), pH 7.4/10 mM, EDTA/8 mM, NaN3 /3% DMSO/0.1% bovine serum albumin/0.1% Tween 20). The order of the addition was ET-1 sample, followed by antibody, then [^125 I]ET-1. After incubation at 4° C. for 0.5 to 2 days, unbound ET-1 was co-precipitated by the addition of charcoal (2.4%, w/v)/dextran (0.24%, w/v) suspension (125 μL) in the RIA buffer with BSA replacedby gelatin (0.25%, w/v). The amount of ir-ET-1 was measured by counting the supernatant and determined from the standard curve. The cross-reactivity to big ET-1 was less than 0.01% and the detection limit was 1 Fmol.

rats [2] = details: cited from earlier work
rats [3] = details: cited from earlier work; remark: listed apart in the source
[4] = tested on: cultured bovine aortic endothelial cells; details: intracellular accumulation; cited from earlier work
[5] = tested on: cultured vascular endothelial cells and smooth muscle cells; details: cited from earlier work
[6] = tested on: pressor response of big ET; details: micromolar concentrations; in vitro and in vivo; cited from earlier work
anaesthetized pigs = details: cited from earlier work

For CC(C)C[C@@H]1NC(=O)[C@@H](C(C)C)NC(=O)[C@@H]2CCCN2C(=O)[C@@H](CC(=O)O)NC(=O)[C@@H](Cc2c[nH]c3ccccc23)NC1=O [BQ-123] (cyclo(L[dW][dD]P[dV])), the “ET-1-induced bronchoconstriction and tracheal smooth muscle contraction” value (allergic sheep) is given as “block ET-1-induced bronchoconstriction and tracheal smooth muscle contraction” and the survival rate (mouse) is given as “significantly increased the survival rate”.

Compound CC[C@H](C)[C@H](NC(=O)OC(C)(C)C)C(=O)N[C@H](C(=O)N[C@@H](Cc1c[nH]c2ccccc12)C(=O)NO)[C@@H](C)CC [Example 2, N-[(1,1-dimethylethoxy)carbonyl]-L-isoleucyl-L-isoleucyl-N-hydroxy-L-tryptophanamide] (Boc-Ile-Ile-Trp-{NHOH}) has an inhibition at 100 µM ([1]; read-out: % ECE Inhibition) of 47%.

With CC[C@H](C)[C@H](N)C(=O)N[C@H](C(=O)N[C@@H](Cc1c[nH]c2ccccc12)C(=O)NO)[C@@H](C)CC [Example 6, L-isoleucyl-L--isoleucyl-N-hydroxy-L-tryptophanamide, monohydrochloride] (H-Ile-Ile-Trp-{NHOH}) the inhibition at 100 µM ([1]; read-out: % ECE Inhibition) was 74%.

For CC[C@H](C)[C@H](NC(=O)CCC(=O)O)C(=O)N[C@H](C(=O)N[C@@H](Cc1c[nH]c2ccccc12)C(=O)NO)[C@@H](C)CC [Example 10] (Suc-Ile-Ile-Trp-{NHOH}), the IC50 ([1]; read-out: IC50 (ECE inhibition)) was 4.7 µM.

CC[C@H](C)[C@H](NC(=O)CCCCCCCCCCN)C(=O)N[C@H](C(=O)N[C@@H](Cc1c[nH]c2ccccc12)C(=O)NOCc1ccccc1)[C@@H](C)CC [Example 12] showed an inhibition at 100 µM ([1]; read-out: % ECE Inhibition) of 65%.

For CC[C@H](C)[C@H](NC(=O)CCCCCCCCCCN)C(=O)N[C@H](C(=O)N[C@@H](Cc1c[nH]c2ccccc12)C(=O)NO)[C@@H](C)CC [Example 13] (H-[Aun]IIW-{NHOH}), the inhibition at 10 µM ([1]; read-out: % ECE Inhibition) was 22% and the inhibition at 50 µM ([1]; read-out: % ECE Inhibition) was 57%.

In the case of COc1cccc(Oc2c(NS(=O)(=O)c3ccc(C(C)(C)C)cc3)ncnc2OCCO)c1 [RO 46-2005], the “efficacy in acute renal ischemia model” value (rats [2]) is given as “effective” and the “efficacy in subarachnoid hemorrhage model” value (rats [3]) is given as “effective”.

For CC(C)CC(=O)N[C@H](C(=O)N[C@H](C(=O)N[C@@H](CC(C)C)[C@@H](O)CC(=O)N[C@@H](C)C(=O)N[C@@H](CC(C)C)[C@@H](O)CC(=O)O)C(C)C)C(C)C [pepstatin] (Isovaleryl-VV[Sta]A[Sta]-OH), the ET-1 production [4] is listed as “did not inhibit ET-1 production”.

In the case of CC(C)C[C@H](NP(=O)(O)O[C@@H]1O[C@@H](C)[C@H](O)[C@@H](O)[C@H]1O)C(=O)N[C@@H](Cc1c[nH]c2ccccc12)C(=O)O [phosphoramidon], the “intracellular conversion of big ET-1 to ET-1” value [5] is given as “inhibit the intracellular conversion of big ET-1 to ET-1”, the “pressor response of big ET” value [6] is given as “block the pressor response of big ET” and the “plasma ET-1 level” value (anaesthetized pigs) is given as “did not have any effect”. For the same compound, the “vasoconstrictor effects evoked by intravenous big ET-1” value (anaesthetized pigs) was “inhibit vasoconstrictor effects”.

In the case of “N-[(1,1-dimethyl-ethoxy) carbonyl]-L-isoleucyl-L-isoleuyl-N-hydroxy-D-tryptophanamide [Example 3]”, the “% ECE Inhibition” value ([1]; Conc. 100 μM) is reported as 46%.

For “N-[(1,1-dimethyl-ethoxy) carbonyl]-L-isoleucyl-N-hydroxy-L-tryptophanamide [Example 4]”, the “% ECE Inhibition” value ([1]; Conc. 100 μM) was 44%.

In the case of “N-[(1,1-dimethylethoxy)-carbonyl]-L-α-aspartyl-L-isoleucyl-n-isoleucyl-1-formyl-N-hydroxy-n-tryptophanamide (Boc-DII[Trp(1-formyl)]-{NHOH}; not fully specified; printed as N-[(1,1-dimethylethoxy)-carbonyl]-L-α-aspartyl-L-isoleucyl-n-isoleucyl-1-formyl-N-hydroxy-n-tryptophanamide) [Example 22]”, the “% ECE Inhibition” value ([1]; Conc. 10 μM) is reported as 53%, the “% ECE Inhibition” value ([1]; Conc. 40 μM) is reported as 73% and the “% ECE Inhibition” value ([1]; Conc. 100 μM) is reported as 87%.

Reference: patent publication US5663296A, “Hydroxamate inhibitors of endothelin converting enzyme” (Warner-Lambert Company, priority 1995, dated 1997)
